{"source": "patent US4329352A", "about": "“Piperidine derivatives of 3-hydroxy-thiophene-2-carboxylic acid esters and pharmaceutical formulations containing these compounds” (BASF Aktiengesellschaft, priority 1979, dated 1982)", "key": {"[1]": {"tested_on": "isolated left atria of male guineapigs", "experiment": "Negatively inotropic effect on isolated left guineapig atria (decrease in contraction amplitude)", "parameters": "species or system guineapig (Pirbright white)", "details": "for R.A. = relative activity (force of contraction): Procainamide = 1.00; for Force of contraction EC 25%: concentration which produces a 25% decrease in the force of contraction: Tyrode's solution pH 7.4, 32° C.", "description": "Atria suspended in an organ bath (volume 125 ml) containing carbogen-saturated Tyrode's solution (pH 7.4, 32° C.) are prestressed with 1.0 g and are driven by square wave pulses of 1 Hz base rhythm and double stimulation threshold values (rheo base: 0.2-1.4 V, chronaxia: 0.3-0.5 msec).\nFurther, the concentration which produces a 25% decrease in amplitude, ie. the EC 25%, is determined, as a measure of the negatively inotropic effect, from the linear relationship between log concentration (mg/l) and relative change in contraction amplitude (Δ%)."}, "[2]": {"tested_on": "aconitine-induced arrhythmia", "experiment": "in vivo", "assay_type": "in vivo, rat (Sprague Dawley)", "description": "(§1) To determine the anti-arrhythmic activity, the substance is administered orally to rats (Sprague Dawley, weight 200-250 g) 45 minutes before the start of narcosis. The animals are narcotized with 100 mg/kg of sodium thiobutabarbital administered intraperitone-ally. The arrhythmogenic substance is aconitine which is infused intravenously, at a dosage rate of 0.005 mg/kg×min, 60 minutes after administration of the novel substance. In the case of untreated animals (N=52), arrhythmias are noted in the electrocardiogram after 2.74±0.07 min, and the occurrence of these can be delayed by anti-arrhythmic agents, to an extent which depends on the dose.\n(§2) The dose which prolongs the infusion duration by 50%, ie. the ED 50%, is determined from the linear relationship between log dose (mg/kg) of test substance and relative prolongation of aconitine infusion duration (Δ%).\n(§3) For further characterization of the substance, the anti-arrhythmic effect of the maximum tolerated dose is determined from the decimal-geometric dosage progression (factor ^3 .cuberoot.10) used in the experiments. In addition, the dose at which toxic symptoms (changes in the initial ECG, cyanosis or cramp) occur is determined. Moreover, the anti-arrhythmic activity of the compounds according to the invention is determined on isolated left atria of male guineapigs (Pirbright white, weight 350-450 g)."}, "in vivo": {"experiment": "in vivo", "assay_type": "in vivo, rat (Sprague Dawley)", "details": "rat, in vivo; rats, oral; decimal-geometric dosage progression; read-out: Maximum effect: Dose (maximum tolerated dose)", "description": "as §1, §2, §3"}, "[3]": {"tested_on": "isolated left atria of male guineapigs", "experiment": "Anti-arrhythmic activity on isolated left guineapig atria (maximum driving rate)", "parameters": "species or system guineapig (Pirbright white)", "details": "for R.A. = relative activity (maximum sequence frequency): Procainamide = 1.00; for Maximum sequence frequency EC 50%: concentration which produces a 50% decrease in the maximum sequence frequency: Tyrode's solution pH 7.4, 32° C.", "experimental": "As a criterion of the anti-arrhythmic action, the frequency (in Hz) at which the atria are just still able to follow the sequence of pulses (the maximum driving rate) is determined by automatic continuous increase in frequency. The concentration which produces a 50% decrease in maximum driving rate, ie. the ED 50%, is calculated from the linear relationship between log concentration (mg/l) and relative decrease in maximum driving rate (Δ%)."}, "[4]": {"experiment": "Toxicity in rats, oral administration: dose at which toxic symptoms (changes in the initial ECG, cyanosis or cramp) occur", "assay_type": "in vivo, rat (Sprague Dawley)", "details": "for TD50 / selectivity ratio: rat, in vivo; for selectivity ratio: read-out: Q (therapeutic range): quotient of toxic dose and anti-arrhythmically effective dose (ED 50%)", "description": "as §1, §3"}, "[5]": {"details": "rats, oral, maximum tolerated dose"}, "[6]": {"details": "rats, oral, greater than procainamide"}, "[7]": {"details": "isolated guineapig atria, compared with procainamide"}}, "note": "Read-outs that look alike come from different tables or passages of the source."}
{"smiles": "COC(=O)c1sccc1OCC(O)CN1CCC(O)(c2ccccc2)CC1", "note": "(stereo not shown) [Example 1, 3-[2-hydroxy-3-(4-phenyl-4-hydroxy-piperidino)-propoxy]-thiophene-2-carboxylic acid methyl ester]", "values": [{"measurement": "R.A. = relative activity (force of contraction)", "setting": "[1]", "value": 14.8}, {"measurement": "Force of contraction EC 25%: concentration which produces a 25% decrease in the force of contraction", "setting": "[1]", "value": 3.80, "unit": "µg/mL"}, {"measurement": "R.A. = relative activity (effective dose)", "setting": "[2]; Procainamide = 1.00, rats, oral", "value": 3.36}, {"measurement": "R.M.E. = relative maximum effect", "setting": "[2]; Procainamide = 1.00, rats, oral, maximum tolerated dose", "value": 2.19}, {"measurement": "ED50", "setting": "[2]; Rattus norvegicus, po, read-out: ED 50%: dose which prolongs the duration of aconitine infusion by 50%", "value": 46.8, "unit": "mg/kg"}, {"measurement": "Maximum effect: prolongation of duration of aconitine infusion, Δ %, at the maximum tolerated dose", "setting": "[2]; [5]", "value": 296, "unit": "%"}, {"measurement": "anti-arrhythmic effect on aconitine-induced arrhythmia, relative to procainamide", "setting": "[2]; [6]", "value": "3 to 4", "unit": "times"}, {"measurement": "MTD", "setting": "in vivo", "value": 215, "unit": "mg/kg"}, {"measurement": "R.A. = relative activity (maximum sequence frequency)", "setting": "[3]; isolated guineapig atria", "value": 68.7}, {"measurement": "anti-arrhythmic effect on isolated guineapig atria, relative to procainamide", "setting": "[3]; as great as that of procainamide", "value": 69, "unit": "times"}, {"measurement": "Q: quotient of EC 25% force of contraction decrease : EC 50% maximum driving rate", "setting": "[3]; isolated guineapig atria", "value": 2.6}, {"measurement": "Maximum sequence frequency EC 50%: concentration which produces a 50% decrease in the maximum sequence frequency", "setting": "[3]; isolated guineapig atria", "value": 1.47, "unit": "µg/mL"}, {"measurement": "difference between anti-arrhythmic and negatively inotropic effect (quotient EC 25% : EC 50%), in words", "setting": "[3]; [7]", "value": "substantially greater than for procainamide"}, {"measurement": "therapeutic range as far as effects on guineapig atria are concerned, in words", "setting": "[3]; [7]", "value": "greater therapeutic range"}, {"measurement": "TD50", "setting": "[4]; rats, oral, changes in initial ECG, cyanosis or cramp, read-out: Toxicity: dose whose administration produces the first toxic symptoms", "value": 464, "unit": "mg/kg"}, {"measurement": "selectivity ratio", "setting": "[4]; rats, oral", "value": 9.9}, {"measurement": "therapeutic range (toxic dose / ED 50%), relative to procainamide", "setting": "[4]; [6]", "value": 1.6, "unit": "times"}]}
{"smiles": "CCN(CC)CCNC(=O)c1ccc(N)cc1", "note": "[Procainamide, procainamide, reference compound]", "values": [{"measurement": "R.A. = relative activity (force of contraction)", "setting": "[1]", "value": 1.00}, {"measurement": "Force of contraction EC 25%: concentration which produces a 25% decrease in the force of contraction", "setting": "[1]", "value": 56.4, "unit": "µg/mL"}, {"measurement": "Maximum effect: prolongation of duration of aconitine infusion, Δ %, at the maximum tolerated dose", "setting": "[2]; [5]", "value": 135, "unit": "%"}, {"measurement": "R.A. = relative activity (maximum sequence frequency)", "setting": "[3]; isolated guineapig atria", "value": 1.00}, {"measurement": "Q: quotient of EC 25% force of contraction decrease : EC 50% maximum driving rate", "setting": "[3]; isolated guineapig atria", "value": 0.56}, {"measurement": "Maximum sequence frequency EC 50%: concentration which produces a 50% decrease in the maximum sequence frequency", "setting": "[3]; isolated guineapig atria", "value": 101, "unit": "µg/mL"}, {"measurement": "TD50", "setting": "[4]; po", "value": 1000, "unit": "mg/kg"}, {"measurement": "selectivity ratio", "setting": "[4]; rats, oral", "value": 6.4}]}
